System: primary cerebellum granule cells of rats
Assay: Protective effects of compounds on primary cerebellum granule cells against glutamate-induced excitotoxic injury (MTT cell viability)
Assay type: cell-based
Settings: protective effect on rat's nerve cells, pre-protection 2 h, then for 24 h, absorbance at 570 nm
Experimental: Isolated primary cerebellum granule cells of infant rats were inoculated in 96-well plates with 1.2×10^5/well by using 10% FBS + 25 mM KCl + 2 mM Glutamine + 1% of double-antibody BME medium. After 24 hours, cytarabine with a final concentration of 10 iM was added to inhibit the proliferation of neurogliocyte cells. After the day 4, glucose with the final concentration of 5 mM was added every four days to complement energy metabolism and water evaporation of cells. The materials were placed in a cell incubator (37 °C, 5% CO2) to be cultured for 10 days. […] After pre-protection for 2 h, 200 iM of glutamate was added to induce cell damage for 24h, and then MTT was added to culture for 4 h. The supernatant fraction was sucked, and 150 iL of DMSO was added to each well for dissolving. After blending with shaking, the light absorption values under 570 nm wavelength was measured with a microplate reader, and the viability of cells was calculated. Cell viability (%) = absorbance of different groups / absorbance of the normal control group × 100%.

Compound | EC50 [µM]
CC(CO[N+](=O)[O-])CC12CC3CC(N)(C1)CC(CC(C)CO[N+](=O)[O-])(C3)C2 (stereo not shown) [NM-012] | 9.3
CCC12CC3CC(N)(C1)CC(CO[N+](=O)[O-])(C3)C2 (stereo not shown) [NM-004] | 8.12
NC12CC3CC(CCO[N+](=O)[O-])(C1)CC(CCO[N+](=O)[O-])(C3)C2 [NM-009] | 5.2
CCC12CC3CC(N)(C1)CC(CCCO[N+](=O)[O-])(C3)C2 (stereo not shown) [NM-005] | 6.06

— EP3150574B1, “AMANTADINE NITRATE COMPOUND HAVING A NEUROPROTECTIVE EFFECT AND PREPARATION AND MEDICAL USE THEREOF” (Guangzhou Magpie Pharmaceuticals Co., Ltd., priority 2014, dated 2015)
